These results are taken from paper PMC7993140 (Medicinal chemistry research : an international journal for …, 2020).

One assay deals with T1, TDP2 (14M_zTDP2) (Danio rerio, UniProt Q5XJA0).
T1 sequence (Q5XJA0 121-369): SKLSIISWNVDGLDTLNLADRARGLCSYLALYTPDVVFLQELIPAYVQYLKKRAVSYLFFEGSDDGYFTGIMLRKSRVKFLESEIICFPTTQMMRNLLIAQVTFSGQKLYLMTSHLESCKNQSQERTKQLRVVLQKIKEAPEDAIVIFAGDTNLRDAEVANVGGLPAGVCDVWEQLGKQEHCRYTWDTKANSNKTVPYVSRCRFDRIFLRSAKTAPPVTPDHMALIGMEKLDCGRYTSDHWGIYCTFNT
Briefly: 14M_zTDP2 fluorescence-based biochemical assay. Conditions: at concentrations up to 50 μM.
For `O=C1NC(=O)c2ccccc2/C1=C/NCc1ccc(O)cc1` [11b, (Z)-4-(((4-hydroxybenzyl)amino)methylene)isoquinoline-1,3(2H,4H)-dione], the “TDP2 inhibition at 50 μM” value was “no inhibition”.
Same read-out and setting: the entry for `O=C1NC(=O)c2ccccc2C1=Cc1ccc[nH]1` [12d, 4-((1H-pyrrol-2-yl)methylene)isoquinoline-1,3(2H,4H)-dione] is “no activity”; for `Cn1cccc1C=C1C(=O)NC(=O)c2ccccc21` [12e, 4-((1-methyl-1H-pyrrol-2-yl)methylene)isoquinoline-1,3(2H,4H)-dione] it is “no activity”; for `O=C1NC(=O)c2ccccc2C1=Cc1cccs1` [12f, 4-(thiophen-2-ylmethylene)isoquinoline-1,3(2H,4H)-dione] it is “no activity”.
Same read-out and setting: the value for `O=C1NC(=O)c2ccccc2C1=Cc1ccsc1` [12g, 4-(thiophen-3-ylmethylene)isoquinoline-1,3(2H,4H)-dione] was “no activity”.

The same assay, now with this note: no concentration stated at the place.
In the case of `O=C1NC(=O)c2ccccc2C1=Cc1ccncc1` [12c, 4-(pyridin-4-ylmethylene)isoquinoline-1,3(2H,4H)-dione], the “TDP2 inhibition” value is listed as “reasonable potency”.

The assay is the same for the next values; noted with them: read-out: IC50 (TDP2 inhibition); in-house fluorescence-based biochemical assay; 25 °C, 60 min.
Regarding `O=C1NC(=O)c2ccccc2C1=Cc1ccc2[nH]ncc2c1` [12h, 4-((1H-indazol-5-yl)methylene)isoquinoline-1,3(2H,4H)-dione], the IC50 amounted to 19 µM.
For the molecule `O=C1NC(=O)c2ccccc2C1=Cc1ccc2[nH]ccc2c1` [12i, 4-((1H-indol-5-yl)methylene)isoquinoline-1,3(2H,4H)-dione], the IC50 is 13 µM.
Same read-out and setting: the figure for `O=C1NC(=O)c2ccccc2C1=Cc1ccc(O)cc1` [12k, 4-(4-hydroxybenzylidene)isoquinoline-1,3(2H,4H)-dione] is 10 µM.
Regarding `O=C1NC(=O)c2ccccc2C1=Cc1ccc(C(=O)O)cc1` [12q, 4-((1,3-dioxo-2,3-dihydroisoquinolin-4(1H)-ylidene)methyl)benzoic acid], the IC50 was determined as 4.8 µM.
Same read-out and setting: the figure for `O=C1Cc2ccccc2C(=O)N1` [compound 8, isoquinoline-1,3-dione, reference compound] is 22 µM.

For a further assay, the system named is TDP2.
Assay: not given
Conditions: read-out: previously reported IC50; previously reported value; cited from earlier work.
As for `O=C1Cc2ccccc2C(=O)N1` [compound 8, isoquinoline-1,3-dione, reference compound], the half-maximal inhibitory concentration (IC50) is 25 µM.
